Results from paper PMC6961122 (Bioorganic & Medicinal Chemistry, 2020).

Assays:
T98 cells = assay: Cell viability assay (PrestoBlue, 5 d) in T98 glioma cells; assay type: cell-based; settings: library screen, 5 d treatment, mean of three independent experiments in triplicates, read-out: EC50 T98 ± SEM
Method: (§1) The antiproliferative activity of a total of 100 compounds was tested against U87 and T98 glioma cell lines, using TMZ[3] and the Topoisomerase I inhibitor SN-38[18] as positive controls. Cells were treated with the library members for 5 d at three different concentrations (3, 30 and 300 µM) and cell viability determined using the PrestoBlue reagent. Half-maximal effective concentration (EC50) values were calculated from the corresponding dose-response curves and plotted in Fig. 2a as a heatmap to facilitate data analysis, with black meaning no activity and dark to light green to yellow transitions indicating decreasing EC50 values (=increasing potencies). Table 1 of the Suppl. Data contains the corresponding EC50 values ± SEM.
(§2) INK128 and SN-38 were used as positive controls. […] Structurally, these derivatives differed in the size of the alkyl group of the N1 position and the presence or absence of an oxygen atom in that moiety (see Suppl. Data).
(§3) U87 and T98 cells (ATCC) were cultured in DMEM (Gibco), supplemented with 10% (v/v) FBS (Gibco) and 2 mM L-Glutamine (Gibco) in a standard incubator (95% humidity, 5% CO2), and subcultured twice per week through trypsinization. G317 patient-derived glioma cells were established by the Glioma Cellular Genetics Resource (gcgr.org.uk) funded by Cancer Research UK. Ethics approval for use of patient-derived cells and early access confirmation to reagents from the Glioma Cellular Genetics Resource assured that all ethical issues according to UK legislation are fulfilled. G317 were cultured in DMEM/HAMS-F12 (Sigma) supplemented with 1.5 g L^−1 D-(+)-Glucose (Sigma), MEM non-essential aminoacids (Gibco), 0.015% (w/v) Penicillin-Streptomycin (Gibco), 0.012% (w/v) BSA (Gibco), 0.1 mM β-mercaptoethanol (Gibco), B27 (Gibco) and N2 supplements (Gibco). Cells were detached using accutase solution (Sigma) and subcultured once per week. Before adding to the cells, medium was supplemented with 10 ng ml^−1 mouse EGF (Preprotech), 10 ng ml^−1 human FGF (Preprotech), and 1 µg ml^−1 Laminin (Sigma).
(§4) 1 × 10^3 U87 cells/well, 5 × 10^2 T98 cells/well, 1 × 10^4 G317 cells/well, 1 × 10^4 HBVP cells/well and 1 × 10^4 bEnd3 cells/well were seeded in 96-well plates. After 48 h in culture, cells were treated with the inhibitors for 5 d. For GI50 determination, the viability of a triplicate sample of each experiment before treatment was measured with the PrestoBlue Reagent (Invitrogen), to establish a basepoint 0% of growth. […] ZIP Synergy scores were obtained with Synergy finder.[22] Viability percentage, EC50 and GI50 values were obtained using GraphPad Prism version 8.0.0 for Windows, GraphPad Software, San Diego, California USA, www.graphpad.com.

U87 cells = assay: Cell viability assay (PrestoBlue, 5 d) in U87 glioma cells; assay type: cell-based; settings: library screen, 5 d treatment, mean of three independent experiments in triplicates, read-out: EC50 U87 ± SEM
Method: as §1, §2, §3, §4

| EC50 (T98 cells) | EC50 (U87 cells) | Structure (SMILES) |
| --- | --- | --- |
| > 30 µM | > 30 µM | CN(C)C1CCN(CCn2nc(-c3ccc(CC#N)cc3)c3c(N)ncnc32)CC1 [eCF600] |
| > 30 µM | > 30 µM | COc1cc(-c2nn(CCN3CCC(N(C)C)CC3)c3ncnc(N)c23)ccc1NC(=O)CC(C)(C)C [eCF526] |
| > 30 µM | > 30 µM | Cc1ccc(-c2nn(CCN3CCN(C)CC3)c3ncnc(N)c23)cc1 [eCF103] |
| 26.3 ± 7.3 µM | > 30 µM | Cc1ccc(-c2nn(CCN3CCC(N(C)C)CC3)c3ncnc(N)c23)cc1 [eCF109] |
| > 30 µM | > 30 µM | CN(C)C1CCN(CCn2nc(-c3ccc(CC(=O)O)cc3)c3c(N)ncnc32)CC1 [eCF556] |
| 24.8 ± 2.68 µM | > 30 µM | COc1cc(-c2nn(CCN3CCC(N(C)C)CC3)c3ncnc(N)c23)ccc1NC(=O)NC(C)(C)C [eCF540] |
| 6.87 ± 1.77 µM | 7.18 ± 1.5 µM | CN(C)C1CCN(CCn2nc(-c3ccc4c(ccn4C(=O)OC(C)(C)C)c3)c3c(N)ncnc32)CC1 [eCF548] |
| 17.6 ± 3.93 µM | 15.2 ± 2.36 µM | CN(C)C1CCN(CCn2nc(-c3cnc4[nH]ccc4c3)c3c(N)ncnc32)CC1 [eCF502] |
| > 30 µM | > 30 µM | Cc1ccc(-c2nn(CCN3CCN(CCO)CC3)c3ncnc(N)c23)cc1 [eCF104] |
| > 30 µM | > 30 µM | Cc1ccc(-c2nn(CCN3CCC(CO)CC3)c3ncnc(N)c23)cc1 [eCF107] |
| > 30 µM | > 30 µM | COc1cc(-c2nn(CCN3CCC(N(C)C)CC3)c3ncnc(N)c23)ccc1NC(=O)OC(C)(C)C [eCF581] |

Second part, the compound before the results:

| Structure (SMILES) | EC50 (T98 cells) | EC50 (U87 cells) |
| --- | --- | --- |
| COc1cc(-c2nn(CCN3CCC(N4CCCCC4)CC3)c3ncnc(N)c23)ccc1NC(=O)OC(C)(C)C [eCF599] | 23 ± 13.4 µM | > 30 µM |
| CNc1ncc2c(-c3ccc(OC)cc3)nn(CC3OCCO3)c2n1 [eSM110] | > 30 µM | > 30 µM |
| CNc1ncc2c(-c3ccc(C(F)(F)F)cc3)nn(CC3OCCO3)c2n1 [eSM114] | > 30 µM | > 30 µM |
| Nc1ncnc2c1c(-c1ccc(-c3ccccc3)cc1)nn2CC1CCCC1 [eSM212] | 22.8 ± 3.13 µM | > 30 µM |
| Nc1ncnc2c1c(-c1ccc(F)cc1)nn2CC1CCCC1 [eSM211] | 24.6 ± 3.25 µM | > 30 µM |
| CNc1ncc2c(-c3ccc(N4CCNCC4)nc3)nn(Cc3cn(C4CCCCC4O)nn3)c2n1 (centres unmarked) [eSM123] | 24.2 ± 3.6 µM | 25.4 ± 4.66 µM |
| NC(=O)c1ccc(-c2nn(CC3CCCC3)c3ncnc(N)c23)cc1 [eSM207] | 21.3 ± 3.28 µM | 19.9 ± 6.03 µM |
| COc1cc(-c2nn(CCN3CCC(N4CCCCC4)CC3)c3ncnc(N)c23)ccc1NC(=O)OC(C)(C)C [eCF519] | 3.14 ± 0.331 µM | 17 ± 2.37 µM |
| COc1cc(-c2nn(CCN3CCC(N(C)C)CC3)c3ncnc(N)c23)ccc1NC(=O)Cc1ccccc1 [eCF530] | 22.8 ± 3.21 µM | > 30 µM |
| CCOC(Cn1nc(-c2cccc(C(N)=O)c2)c2c(N)ncnc21)OCC [eCF208] | > 30 µM | > 30 µM |
| CCOC(Cn1nc(-c2cccc(O)c2)c2c(N)ncnc21)OCC [eCF205] | > 30 µM | > 30 µM |
| CN(C)CC1CCN(CCn2nc(C#Cc3ccccc3)c3c(N)ncnc32)CC1 [eCF230] | 13.7 ± 1.84 µM | 18.2 ± 1.2 µM |
| CN(C)CC1CCN(CCn2nc(-c3ccc4[nH]ccc4c3)c3c(N)ncnc32)CC1 [eCF221] | 16.8 ± 3.66 µM | 18.7 ± 4.91 µM |
| CNc1ncc2c(-c3ccc(-c4ccccc4)cc3)nn(CC3OCCO3)c2n1 [eSM111] | > 30 µM | > 30 µM |
| Nc1ncnc2c1c(-c1cnc3[nH]ccc3c1)nn2CC1OCCO1 [eCF307] | 13.1 ± 2.65 µM | 11.3 ± 2.56 µM |
| CNc1ncc2c(-c3ccc(OC)c(OC)c3)nn(CC3CCCC3)c2n1 [eSM104] | 17.5 ± 2.14 µM | > 30 µM |
| CNc1ncc2c(-c3ccc(N4CCNCC4)nc3)nn(Cc3cn(Cc4ccccc4)nn3)c2n1 [eSM119] | 11.3 ± 0.882 µM | 9.73 ± 1.22 µM |
